This is an account of results in US7371413B2, “Antioxidant and anti-inflammatory activity of compounds and preparations from African nutmeg seeds” (Rutgers, The State University, priority 2003, dated 2008).

Assay [1] can be described thus: DPPH free radical scavenging assay. In kind it is biochemical. The conditions noted are these: DPPH 1.0×10^−4 M in ethanol, half an hour, 517 nm. As for the experimental part:
Kombo butter, kombo butter acid extract, and purified sargaquinoic acid (KB-1), sargachromenol (KB-2), and sargahydroquinoic acid (KB-3) were tested for antioxidant activity by both the 2,2′-diphenylpicrylydrazyl (DPPH) and the 2,2′-azinobis-(3-ethylbenzothiazoline-6-sulfonic acid) (ABTS) free radical scavenging assays. A solution of DPPH in ethanol was prepared at a final concentration of 1.0×10^−4 M. Each of the potential actives under investigation was added to the DPPH solution at a number of different concentrations. The solutions were mixed, shaken vigorously and kept in the dark for half an hour. The absorbance of the samples was then measured at 517 nm with an HP Model 8453 spectrophotometer using a blank of ethanol without DPPH. All tests were run in triplicate and averaged. Differences among individual measurements were always less than 5% [26].

Assay [2] is described as follows: ABTS free radical scavenging assay (TEAC). In kind it is biochemical. The conditions noted are these: Trolox equivalent of a 1.0 mM solution. As for the experimental part:
For the ABTS assay, a solution of ABTS in water was prepared at a final concentration of 7 mM. The ABTS radical cation (ABTS^.+) was produced by adding solid potassium persulfate to the ABTS solution sufficient to yield a final concentration of 2.45 mM potassium persulfate in the mixture and allowing the mixture to stand in the dark at room temperature for 12-16 hours before use. The ABTS^.+ solution was diluted with methanol to an absorbance of 0.70 at 734 nm. Stock solutions of each of the potential actives under investigation were diluted with ethanol to ensure 20-80% inhibition of the radical cation upon introduction of a 10 μL aliquot of the active solution to 1 ml of diluted ABTS^.+ solution. The absorbance was measured beginning exactly 1 min after initial mixing and thereafter up to 6 min. Trolox was used as the standard, and the activity of each of the potential actives was expressed as a Trolox Equivalent Antioxidant Capacity (TEAC) value. The TEAC value represents the millimolar concentration of a Trolox solution having an equivalent antioxidant capacity to a 1.0 mM solution of the potential active under investigation.

For assay [3], the system named is COX-2 protein expression in LPS-induced RAW 264.7 cells. Kind of assay: Inhibition of LPS-induced COX-2 protein expression (Western blotting). The class given is cell-based, mouse. The conditions noted are these: treatment for 18 hrs, LPS 0.5 μg/mL. An excerpt: (§1) To confirm whether the inhibition of NO production by kombo butter, kombo butter acid extract, and purified sargaquinoic acid (KB-1), sargachromenol (KB-2), and sargahydroquinoic acid (KB-3) was due to reduced enzymatic activity or protein expression of inducible nitric oxide synthase (iNOS), we investigated the effect of kombo butter and its constituents on iNOS protein expression by Western blotting. In addition to iNOS, we also studied the effect of kombo butter and its constituents on the expression of cyclooxygenase-2 (COX-2), an enzyme critical to the production of inflammatory prostaglandins and known to be activated in LPS-stimulated macrophages.
(§2) RAW 264.7 mouse macrophage cells were cultured in Dulbecco's Modified Eagle Medium (DMEM) supplemented with 15% fetal bovine serum (FBS) and an antibiotic and antimycotic mixture. Cell suspensions of 50,000 cells/well were cultured in quadruplicate in flat bottom microtiter plates for 12 hrs. […]
(§3) An equal amount of protein (40 μg) from each sample was resolved by SDS-polyacrylamide gel electrophoresis. […] Specific bands were detected using enhanced chemiluminescence's detection system (Amersham-Pharmacia Biotech, NJ, USA) and the membrane was exposed to X-ray film. […]

Assay [4] deals with iNOS mRNA expression in LPS-induced RAW 264.7 mouse macrophage cells. Description: Inhibition of LPS-induced iNOS mRNA expression (RT-PCR). In kind it is cell-based. Particulars: 12 hrs. The procedure: (§4) Total RNA was isolated using Tri-reagent (Sigma, MO, USA) and 5 μg of this RNA was reverse transcribed to make cDNA using random hexamers and Superscript™ reverse transcriptase (Invitrogen, CA, USA) according to the manufacturer's instructions. The linear range of amplification of iNOS and COX-2 cDNA was determined using gene specific primers from Ambion, Inc. (TX, USA) according to the manufacturer's instructions. Briefly, the optimum amount of 18S primer and competitor for iNOS and COX-2 genes were determined. […] Finally, PCR products from each sample (10 μl) were resolved by electrophoresis in a 2% agarose gel (Fisher Biotech, NJ, USA) and stained with ethidium bromide. An image of the gel was captured after the appropriate exposure time and densitometric analysis was performed using image analysis software (Scion, NIH). For relative quantification, 18S ribosomal RNA was also amplified in same reaction as an internal control. Quantitative analysis of the expression of iNOS and COX-2 mRNA was performed by taking the ratio of the integrated density of each band to that of the 18S RNA band in the same sample.

Assay [5] relates to COX-2 mRNA expression in LPS-induced RAW 264.7 mouse macrophage cells. Kind of assay: Inhibition of LPS-induced COX-2 mRNA expression (RT-PCR). In kind it is cell-based. Particulars: for inhibition of COX-2 mRNA expression: 12 hrs; for inhibition of COX-2 mRNA expression (in words): within the concentration ranges assayed. As for the experimental part:
as §4

The test system of assay [6] is TPA-induced mouse ear edema. The conditions noted are these: compounds isolated from Roldana barba-johannis; compared with α-tocopherol; cited from earlier work.
For assay [7] the following is noted: compared with α-tocopherol and indomethacin; cited from earlier work.
In assay [8] the test system is iNOS protein expression in LPS-induced RAW 264.7 cells. Description: Inhibition of LPS-induced iNOS protein expression (Western blotting). In kind it is cell-based, mouse. Particulars: treatment for 18 hrs, LPS 0.5 μg/mL.
Text: as §1, §2, §3

For assay [9] the following is noted: in vitro, compared with α-tocopherol; cited from earlier work.

In the case of `CC(C)=CCC/C(=C/CC/C(C)=C/CCC1(C)C=Cc2cc(O)cc(C)c2O1)C(=O)O` (centres unmarked) [Sargachromenol, sargachromenol], in assay [1], the “DPPH free radical scavenging IC50” value stood at 17.3 µg/mL. For the same compound, the TEAC in assay [2] was determined as 0.75 mM. Besides, the “inhibition of COX-2 protein expression” value in assay [3] is listed as “markedly inhibited”. Besides, in assay [4] (50 μM), the “inhibition of iNOS mRNA expression (in words)” value is given as “exhibited inhibitory activity”. Besides, the “inhibition of COX-2 mRNA expression” value in assay [5] (50 μM) was 16%. Besides, the anti-inflammatory activity entry in assay [6] is “exceeded that of α-tocopherol”. Besides, in assay [7], the “antioxidant activity (DPPH radical scavenging)” value was “better than those of either α-tocopherol or indomethacin”.
Consider `CC(C)=CCC/C(=C/CC/C(C)=C/CC/C(C)=C/Cc1cc(O)cc(C)c1O)C(=O)O` [Sargahydroquinoic acid, sargahydroquinoic acid], for which the “inhibition of iNOS mRNA expression” value in assay [4] (25 μM) is listed as 31%; in assay [4] (50 μM) it was 74%. The “inhibition of COX-2 mRNA expression” value is around 12% in assay [5] (25 μM) and around 19% in [5] (50 μM).
`CC(C)=CCC/C(=C\CC/C(C)=C/CC/C(C)=C/CC1=CC(=O)C=C(C)C1=O)C(=O)O` [Sargaquinoic acid, sargaquinoic acid]: the TEAC in [2] was found to be 0.15 mM. In [8], the “inhibition of iNOS protein expression” value is listed as “markedly inhibited”. Besides, the “inhibition of iNOS mRNA expression (in words)” value in [4] (50 μM) is reported as “exhibited inhibitory activity”.
With `COc1ccc2c(c1)c(CC(=O)O)c(C)n2C(=O)c1ccc(Cl)cc1` [indomethacin, reference compound], the “inhibition of COX-2 mRNA expression (in words)” value in assay [5] is given as “neither of these compounds effected any inhibition”.
For `CC(=CCCC(C)=CCc1cc(O)cc(C)c1O)CCC=C(C)CCC=C(C)C(=O)O` [kombic acid], the “antioxidant activity with respect to lipid peroxidation” value in assay [9] is given as “either met or exceeded that of α-tocopherol”.
vitamin E [reference compound]: the “inhibition of COX-2 mRNA expression (in words)” value in assay [5] is “neither of these compounds effected any inhibition”.
